In ChEMBL document CHEMBL1201862, “PubChem BioAssay data set” (2004):
Where a name gives a salt, the structure may show the parent alone.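 Cultured in 96-well plates, cells were exposed to test compound for 48 hours across five concentrations. Abbreviation: GI50, concentration required for 50% inhibition of growth.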 The source made the active and inactive calls. Cut-off read from the data, not from the text of the source: active = GI50 up to about 1.1 µM and inactive = higher.

Experiments:
Assay in all cases: inhibition of tumour cell growth, NCI panel, 48 h
[1] = tested on: A498
[2] = tested on: CAKI-1
[3] = tested on: CCRF-CEM
[4] = tested on: HCT-116
[5] = tested on: HCT-15
[6] = tested on: HOP-92
[7] = tested on: K562
[8] = tested on: KM12
[9] = tested on: M14
[10] = tested on: MOLT-4
[11] = tested on: Malme-3M
[12] = tested on: NCI-H226
[13] = tested on: NCI-H23
[14] = tested on: NCI-H460
[15] = tested on: NCI-H522
[16] = tested on: OVCAR-4
[17] = tested on: OVCAR-8
[18] = tested on: SF-268
[19] = tested on: SK-MEL-5
[20] = tested on: DU-145

Row | SMILES | GI50 [1] | GI50 [2] | GI50 [3] | GI50 [4] | GI50 [5] [µM] | GI50 [6] | GI50 [7] | GI50 [8] | GI50 [9] | GI50 [10] | GI50 [11] | GI50 [12] | GI50 [13] | GI50 [14] | GI50 [15] | GI50 [16] | GI50 [17] | GI50 [18] | GI50 [19] | GI50 [20]
1 | O=C(/N=C(/Nc1ccccc1)SCCS/C(=N\C(=O)c1ccccc1)Nc1ccccc1)c1ccccc1 | 58.7 µM (inactive) | 33.7 µM (inactive) | 64.6 µM (inactive) | 46.8 µM (inactive) | 54.8 | 16.8 µM (inactive) | 43.6 µM (inactive) | 62.5 µM (inactive) | 60.5 µM (inactive) | 38.7 µM (inactive) | > 100 µM (inactive) | 66.5 µM (inactive) | 59.8 µM (inactive) | 44.3 µM (inactive) | 22.2 µM (inactive) | 42.1 µM (inactive) | 71.1 µM (inactive) | 41.5 µM (inactive) | 48.3 µM (inactive) | 
2 | COc1ccc(C2(CN(C)C)COc3cc(OC)c(OC)cc3C2=O)cc1OC (stereo unspecified) | 74.8 µM (inactive) | 42.1 µM (inactive) | 19.6 µM (inactive) | 16.3 µM (inactive) |  | 79.3 µM (inactive) | 31.6 µM (inactive) | 61.5 µM (inactive) | 89.3 µM (inactive) | 44.3 µM (inactive) | > 100 µM (inactive) | 84.9 µM (inactive) | 32.7 µM (inactive) | 33.9 µM (inactive) | 59.6 µM (inactive) | 34.6 µM (inactive) | 53.1 µM (inactive) | > 100 µM (inactive) | 24.1 µM (inactive) | 
3 | O=c1/c(=C/c2ccc(Cl)cc2Cl)sc2nc3ccccc3n12 | > 100 µM (inactive) | > 100 µM (inactive) | > 100 µM (inactive) | 71.9 µM (inactive) | > 100 | > 100 µM (inactive) | > 100 µM (inactive) | > 100 µM (inactive) | > 100 µM (inactive) | > 100 µM (inactive) | > 100 µM (inactive) | > 100 µM (inactive) | > 100 µM (inactive) | > 100 µM (inactive) | > 100 µM (inactive) | > 100 µM (inactive) | > 100 µM (inactive) | > 100 µM (inactive) | > 100 µM (inactive) | 
4 | CCOc1cn(C2OC(CO)C(O)C2O)c(=O)[nH]c1=O (stereo unspecified) | > 100 µM (inactive) | > 100 µM (inactive) | > 100 µM (inactive) | > 100 µM (inactive) | > 100 | > 100 µM (inactive) | > 100 µM (inactive) | > 100 µM (inactive) | > 100 µM (inactive) | > 100 µM (inactive) | > 100 µM (inactive) | > 100 µM (inactive) | > 100 µM (inactive) | > 100 µM (inactive) | > 100 µM (inactive) |  | > 100 µM (inactive) | > 100 µM (inactive) | > 100 µM (inactive) | 
5 | Oc1cc(-c2ccccc2)nc2cc(Cl)ccc12 | 1.35 µM (inactive) | 0.283 µM (active) | 0.432 µM (active) | 0.339 µM (active) | 0.387 | 0.376 µM (active) | 0.382 µM (active) | 0.695 µM (active) | 0.555 µM (active) | 0.675 µM (active) | 0.42 µM (active) | 7.67 µM (inactive) | 1.1 µM (active) | 0.417 µM (active) | 0.112 µM (active) | 9.14 µM (inactive) | 0.74 µM (active) | 1.21 µM (inactive) | 0.191 µM (active) | 
6 | Nc1cccc2c1-c1c(cccc1[N+](=O)[O-])C2=O | > 100 µM (inactive) | > 100 µM (inactive) | > 100 µM (inactive) | > 100 µM (inactive) | > 100 | > 100 µM (inactive) | > 100 µM (inactive) | > 100 µM (inactive) | > 100 µM (inactive) | > 100 µM (inactive) | > 100 µM (inactive) | > 100 µM (inactive) | > 100 µM (inactive) | > 100 µM (inactive) | > 100 µM (inactive) | > 100 µM (inactive) | > 100 µM (inactive) | > 100 µM (inactive) | > 100 µM (inactive) | 
7 | CC(C)/C=C1\CCC(CN2CCCC2)C1=O (stereo unspecified) | > 42.3 µM (inactive) | 5.16 µM (inactive) | 3.48 µM (inactive) | 8.97 µM (inactive) | 5.05 | 17.5 µM (inactive) | 2.69 µM (inactive) | 10 µM (inactive) | 10.9 µM (inactive) | 3.63 µM (inactive) | 6.28 µM (inactive) | 20.9 µM (inactive) | 16.7 µM (inactive) | 39 µM (inactive) | 1.95 µM (inactive) | 17.6 µM (inactive) | 10.4 µM (inactive) | 22.3 µM (inactive) | 17.1 µM (inactive) | 
8 | CCc1cccc(C)c1NC(=O)CCc1nnc(SC)o1 | > 100 µM (inactive) | > 100 µM (inactive) | > 100 µM (inactive) | > 100 µM (inactive) | > 100 | > 100 µM (inactive) | > 100 µM (inactive) | > 100 µM (inactive) | > 100 µM (inactive) | > 100 µM (inactive) | > 100 µM (inactive) |  | > 100 µM (inactive) | > 100 µM (inactive) | > 100 µM (inactive) | > 100 µM (inactive) | > 100 µM (inactive) | > 100 µM (inactive) | > 100 µM (inactive) | 
9 | COC(=O)C1=CCS(=O)(=O)C1 | > 100 µM (inactive) | > 100 µM (inactive) | > 10 µM (inactive) | > 100 µM (inactive) | > 100 | > 100 µM (inactive) | > 100 µM (inactive) | > 100 µM (inactive) | > 100 µM (inactive) | > 100 µM (inactive) | > 100 µM (inactive) | > 100 µM (inactive) | > 100 µM (inactive) | > 100 µM (inactive) |  | > 100 µM (inactive) | > 100 µM (inactive) | > 100 µM (inactive) | 5.16 µM (inactive) | 
10 | NCCOCn1cc(Cc2cccc(OCc3ccccc3)c2)c(=O)[nH]c1=O | > 10 µM (inactive) |  | 44.1 µM (inactive) | 86.7 µM (inactive) | > 100 | > 100 µM (inactive) | 42.8 µM (inactive) | > 100 µM (inactive) | > 100 µM (inactive) | 73.8 µM (inactive) |  | > 100 µM (inactive) | > 100 µM (inactive) | 63.5 µM (inactive) |  | 90.6 µM (inactive) | > 100 µM (inactive) |  | > 100 µM (inactive) | 
11 | Cc1nccc2c1[nH]c1cc(O)ccc12 [HARMOL HYDROCHLORIDE] | 63.4 µM (inactive) | 41.1 µM (inactive) | 38.5 µM (inactive) | 41.5 µM (inactive) | 61.4 | 27.5 µM (inactive) | 37.1 µM (inactive) | 55.8 µM (inactive) | > 100 µM (inactive) | 23.7 µM (inactive) | 44.7 µM (inactive) | 96.6 µM (inactive) | 76.7 µM (inactive) | 37.4 µM (inactive) |  | > 100 µM (inactive) | 49.2 µM (inactive) | > 100 µM (inactive) | 69.2 µM (inactive) | 
12 | O=C1CC[C@@H](NC(=O)Cc2ccccc2)C(=O)N1 | > 100 µM (inactive) | > 100 µM (inactive) | > 100 µM (inactive) | > 100 µM (inactive) |  | > 100 µM (inactive) | > 100 µM (inactive) | > 100 µM (inactive) | > 100 µM (inactive) | > 100 µM (inactive) | > 100 µM (inactive) | > 100 µM (inactive) | > 100 µM (inactive) | > 100 µM (inactive) | > 100 µM (inactive) | > 100 µM (inactive) | > 100 µM (inactive) | > 100 µM (inactive) | > 100 µM (inactive) | 
13 | CO[C@H]1CC[C@]2(C)C3=CC[C@@]4(C)C(CC[C@@H]4C(C)CC[C@@H](C)C(C)C)C(=CCC2C1)O3 (stereo partly specified) | > 25 µM (inactive) | 10.2 µM (inactive) | > 25 µM (inactive) | > 25 µM (inactive) | > 25 | > 22.7 µM (inactive) | > 25 µM (inactive) | > 25 µM (inactive) | > 25 µM (inactive) | > 25 µM (inactive) | > 25 µM (inactive) | > 16.5 µM (inactive) | > 7.91 µM (inactive) | > 25 µM (inactive) | > 25 µM (inactive) | > 25 µM (inactive) | > 25 µM (inactive) | > 25 µM (inactive) | > 25 µM (inactive) | 
14 | N#CC(/C(=N/NC(N)=S)C(=O)Nc1cccc(Cl)c1)c1ccccc1 (stereo unspecified) | > 100 µM (inactive) | > 100 µM (inactive) | > 100 µM (inactive) | > 100 µM (inactive) | > 100 | > 100 µM (inactive) | > 100 µM (inactive) | > 100 µM (inactive) | > 100 µM (inactive) | > 100 µM (inactive) | > 100 µM (inactive) | > 100 µM (inactive) | > 100 µM (inactive) | > 100 µM (inactive) | > 100 µM (inactive) | > 100 µM (inactive) | > 100 µM (inactive) | > 100 µM (inactive) | > 100 µM (inactive) | 
15 | O=C(CC1(O)C(=O)Nc2c(Cl)ccc(Cl)c21)c1ccc(Cl)cc1Cl (stereo unspecified) | 26.3 µM (inactive) | 20.3 µM (inactive) |  | 19.1 µM (inactive) | 30.6 | 21 µM (inactive) |  | 16.5 µM (inactive) | 13.2 µM (inactive) |  | 20.4 µM (inactive) | 15.5 µM (inactive) | 19.9 µM (inactive) | 20.5 µM (inactive) |  | 10.4 µM (inactive) | 20.7 µM (inactive) | 27.6 µM (inactive) |  | 
16 | O=C(NCCn1ccnn1)Nc1ccccc1 |  | > 100 µM (inactive) | > 100 µM (inactive) |  | > 100 | > 100 µM (inactive) | > 100 µM (inactive) | > 100 µM (inactive) | > 100 µM (inactive) | > 100 µM (inactive) | > 100 µM (inactive) |  | > 100 µM (inactive) | > 100 µM (inactive) | > 100 µM (inactive) |  | > 100 µM (inactive) | > 100 µM (inactive) | > 100 µM (inactive) | > 100 µM (inactive)
